IC50 data for 29 compounds are collected here from patent US8853208B2, “Amino alcohol-substituted arylthienopyrimidinones, process for their preparation and their use as medicaments” (Sanofi, priority 2006, dated 2014).

For this test, the target named is T1, human MCH receptor (Homo sapiens, UniProt Q99705).
T1 construct: expressed in transfected cells
Nature of the test: Functional IC50 of MCH1R antagonists: cellular calcium flux (FLIPR) after MCH in recombinant HEK293 cells. The class given is cell-based. The conditions noted are these: calcium flux after addition of agonist (MCH), recombinant HEK293 cell line expressing the human MCH receptor. The text has this:
Influence on the MCH receptor in vitro; determination of functional IC50 values of MCH1R antagonists
Cloning of the cDNA for the human MCH receptor, preparation of a recombinant HEK293 cell line which expresses the human MCH receptor, and functional measurements with the recombinant cell line took place in analogy to the description by Audinot et al. (J. Biol. Chem. 276, 13554-13562, 2001). A difference from the reference was, however, the use of the plasmid pEAK8 from EDGE Biosystems (USA) for the construction of the expression vector. The host used for the transfection was a transformed HEK cell line named “PEAK Stable Cells” (likewise from EDGE Biosystems). Functional measurements of the cellular calcium flux after addition of agonist (MCH) in the presence of ligand of the invention took place with the aid of the FLIPR apparatus from Molecular Devices (USA), using protocols of the apparatus manufacturer. The compounds of the invention show a significant inhibition (>30%) of the signal induced by the agonist at a concentration of 100 μM, preferably at 10 μM, particularly preferably at 1 μM, very particularly preferably at 100 nM and even more particularly preferably at 10 nM. Besides the functional activity it is also possible to determine the affinity for the MCH1R according to Audinot et al. (Br. J. Pharmacol. 2001, 133, 371-378).
(In general: Calcium flux is commonly read through the fluorescence of an indicator in the cells.)

pIC50: −log10 of the molar value.

T1 sequence (Q99705 whole entry): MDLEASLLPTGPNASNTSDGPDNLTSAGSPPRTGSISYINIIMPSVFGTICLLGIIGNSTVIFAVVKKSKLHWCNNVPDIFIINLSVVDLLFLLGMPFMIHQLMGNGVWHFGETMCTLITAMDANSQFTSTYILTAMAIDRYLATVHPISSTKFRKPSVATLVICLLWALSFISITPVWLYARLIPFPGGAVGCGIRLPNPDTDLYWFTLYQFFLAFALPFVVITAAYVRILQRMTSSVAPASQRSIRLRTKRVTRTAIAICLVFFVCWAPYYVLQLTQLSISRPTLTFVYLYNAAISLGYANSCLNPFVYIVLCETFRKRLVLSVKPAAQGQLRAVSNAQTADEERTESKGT

As for `COc1cc(-n2cnc3cc(C#CC4CC4)sc3c2=O)ccc1OCCN1CCCC1` [Example 42, 6-Cyclopropylethynyl-3-[3-methoxy-4-(2-pyrrolidin-1-ylethoxy)phenyl]-3H-thieno[3,2-d]-pyrimidin-4-one], the negative logarithm of the IC50 (pIC50) (usually −log10 of the IC50, conventionally taken in molar units) is 6.96. `CC(O)C#Cc1cc2ncn(-c3ccc(O[C@H]4C[C@H]5CC[C@@H](C4)N5C)cc3)c(=O)c2s1` (some centres unmarked) [Example 50]: the pIC50 is 6.62. The value for `COC(C)(C)C#Cc1cc2ncn(-c3ccc(O[C@H]4C[C@H]5CC[C@@H](C4)N5C)cc3)c(=O)c2s1` [Example 56] was 6.08; that for `CN1[C@@H]2CC[C@H]1CC(Oc1ccc(-n3cnc4cc(C5=CCOCC5)sc4c3=O)cc1)C2` (some centres unmarked) [Example 142] was 5.59.

As for `O=c1c2sc(C#CC3CC3)cc2ncn1-c1ccc(OCCN2CCCC2)c(F)c1` [Example 69], the pIC50 is 6.70.

`CN1[C@@H]2CC[C@H]1C[C@@H](Oc1ccc(-n3cnc4cc(C(O)CC(C)(C)C)sc4c3=O)cc1)C2` (some centres unmarked) [Example 135]: the pIC50 is 5.65. The value for `CCCCC(=O)c1cc2ncn(-c3ccc(O[C@H]4C[C@H]5CC[C@@H](C4)N5C)cc3)c(=O)c2s1` [Example 114] was 5.73; that for `CN1[C@@H]2CC[C@H]1C[C@@H](Oc1ccc(-n3cnc4cc(CCC5(O)CCCC5)sc4c3=O)cc1)C2` [Example 11, 6-[2-(1-Hydroxycyclopentyl)ethyl]-3-[4-((1R,3R,5S)-8-methyl-8-azabicyclo[3.2.1]oct-3-yloxy)phenyl]-3H-thieno[3,2-d]pyrimidin-4-one] was 5.89; that for `CN1[C@@H]2CC[C@H]1C[C@@H](Oc1ccc(-n3cnc4cc(C(=O)N5CCCCC5)sc4c3=O)cc1)C2` [Example 84] was 4.88. In the case of `CCC(C)(O)CCc1cc2ncn(-c3ccc(O[C@H]4C[C@H]5CC[C@@H](C4)N5C)c(Cl)c3)c(=O)c2s1` (some centres unmarked) [Example 20], the negative logarithm of the IC50 (pIC50) is 5.99. Turning to `CN1[C@@H]2CC[C@H]1C[C@@H](Oc1ccc(-n3cnc4cc(CCc5ccco5)sc4c3=O)cc1)C2` [Example 171, 6-(2-Furan-2-ylethyl)-3-[4-((1S,3R,5R)-8-methyl-8-azabicyclo[3.2.1]oct-3-yloxy)phenyl]-3H-thieno[3,2-d]pyrimidin-4-one], the pIC50 was 6.68. In the case of `CN1[C@@H]2CC[C@H]1C[C@@H](Oc1ccc(-n3cnc4cc(CC(O)C5CCC5)sc4c3=O)cc1)C2` (some centres unmarked) [Example 166], the pIC50 is 5.96. On to `CS(=O)(=O)CCN1[C@@H]2CC[C@H]1C[C@@H](Oc1ccc(-n3cnc4cc(C#CC5CC5)sc4c3=O)cc1)C2` [Example 63], for which the pIC50 is 6.25. `Cc1cc(-n2cnc3cc(C#CC(C)O)sc3c2=O)ccc1O[C@H]1C[C@H]2CC[C@@H](C1)N2C` (some centres unmarked) [Example 57]: the pIC50 is 6.92. The value for `COc1cc(-n2cnc3cc(C#CC(C)O)sc3c2=O)ccc1O[C@H]1C[C@H]2CC[C@@H](C1)N2C` (some centres unmarked) [Example 58] was 6.47; that for `CN1[C@@H]2CC[C@H]1C[C@@H](Oc1ccc(-n3cnc4cc(C(O)C5CCCC5)sc4c3=O)cc1)C2` (stereo partly drawn) [Example 121, 6-(Cyclopentylhydroxymethyl)-3-[4-((1S,3R,5R)-8-methyl-8-azabicyclo[3.2.1]oct-3-yloxy)phenyl]-3H-thieno[3,2-d]pyrimidin-4-one] was 6.12; that for `CCC(O)CCc1cc2ncn(-c3ccc(OC4C[C@H]5CC[C@@H](C4)N5C)c(CCCO)c3)c(=O)c2s1` (some centres unmarked) [Example 190] was 5.87. The value for `CN1[C@@H]2CC[C@H]1C[C@@H](Oc1ccc(-n3cnc4cc(CCC5CC5)sc4c3=O)cc1)C2` [Example 7] was 6.03; that for `CN(C)CCOc1ccc(-n2cnc3cc(COCC4CCC4)sc3c2=O)cc1` [Example 93, 6-Cyclobutylmethoxymethyl-3-[4 (2-dimethylaminoethoxy)phenyl]-3H-thieno[3,2-d]pyrimidin-4-one] was 6.03; that for `CCCCC(O)c1cc2ncn(-c3ccc(O[C@H]4C[C@H]5CC[C@@H](C4)N5C)cc3)c(=O)c2s1` (some centres unmarked) [Example 127] was 6.00. The value for `CN1[C@@H]2CC[C@H]1CC(Oc1ccc(-n3cnc4cc(N5C[C@H]6CCCN6C5=O)sc4c3=O)cc1)C2` (some centres unmarked) [Example 77] was 5.02; that for `COCCCc1cc2ncn(-c3ccc(O[C@H]4C[C@H]5CC[C@@H](C4)N5C)c(Cl)c3)c(=O)c2s1` [Example 23] was 6.28; that for `CN1[C@@H]2CC[C@H]1C[C@@H](Oc1ccc(-n3cnc4cc(CC(O)c5ccco5)sc4c3=O)cc1)C2` (some centres unmarked) [Example 169] was 6.54. In the case of `CC(C)N(C)C(=O)c1cc2ncn(-c3ccc(O[C@H]4C[C@H]5CC[C@@H](C4)N5C)cc3)c(=O)c2s1` [Example 82], the pIC50 is 5.16.

As to `CCC(O)CCc1cc2ncn(-c3ccc(O[C@H]4C[C@H]5CC[C@@H](C4)N5C)c(C)c3)c(=O)c2s1` (some centres unmarked) [Example 27], the pIC50 is 6.85.

Take `COCCCc1cc2ncn(-c3ccc(O[C@H]4C[C@H]5CC[C@@H](C4)N5C)c(C)c3)c(=O)c2s1` [Example 22]: the pIC50 was 6.40. In the case of `CN1[C@@H]2CC[C@H]1C[C@@H](Oc1ccc(-n3cnc4cc(C#CC5CC5)sc4c3=O)cc1)C2` [Example 62], the pIC50 is 7.00. The value for `CCc1cc(-n2cnc3cc(C#CC(O)CC)sc3c2=O)ccc1O[C@H]1C[C@H]2CC[C@@H](C1)N2C` (some centres unmarked) [Example 181] was 6.68; that for `CCC(O)C#Cc1cc2ncn(-c3ccc(OC4C[C@H]5CC[C@@H](C4)N5C)c(CCC(O)CC)c3)c(=O)c2s1` (some centres unmarked) [Example 178] was 5.90.
